Results as given in patent publication US20050014942A1, “Amide derivatives and drugs” (priority 2001, published 2005).
Where a name gives a salt, the structure may show the parent alone.

Test system: collagen production induced by TGF-β (NHDF cells)
Experiment: Inhibitory effect on collagen production induced by TGF-β, [3H] proline uptake (NHDF cells)
Type: cell-based, human
Conditions: TGF-β1 3 ng/ml; for inhibition at 1 µM / inhibition at 3 µM / inhibition at 10 µM: Homo sapiens, NHDF
Description: As an index of collagen production, the uptake of [^3H] proline was measured.
Using a 96-well microplate, normal human skin derived fibroblast (NHDF, 10^4/well) or human embryonic lung fibroblast (TIG-3, 10^4/well) were cultured in a 10% fetal calf serum (FCS)-containing Dulbecco's modified Eagle medium (DMEM) for one day. After removing the culture supernatant, the cells were washed once with a 0.1% bovine serum albumin (BSA)-containing DMEM medium and then cultured in the 0.1% bovine serum albumin (BSA)-containing DMEM medium for one day. After adding each of the test compounds in each concentration (1, 3, 10 μM), the cells were cultured and, after adding TGF-β1 (3 ng/ml) and [^3H] proline (18.5 kBq/well), the cells were further cultured for additional one day.
After removing the culture supernatant, the cells were washed twice with a phosphate buffer solution (PBS) and dissolved with 0.3M NaOH and 1% sodium dodecylsulfate (SDS), and then each protein fraction was precipitated with trichloroacetic acid (TCA) After the precipitate was filtered through a glass filter (GF/B) and washed, the quantity of [^3H] proline on the glass filter was measured by a liquid scintillation counter. The number of cells was measured by a cell growth measuring kit (XTT, Roche) and the uptake of [^3H] proline was corrected by the number of cells. Inhibitory ratio was calculated as compared with the case where a difference between the uptake of [^3H] proline with or without TGF-β1.

SMILES	inhibition at 1 µM (1 μM)	inhibition at 3 µM (3 μM)	further results
Cn1c(-c2ccccc2)c(/C=C/C(=O)N[C@@H]2c3ccccc3C[C@@H]2O)c2cc3c(cc21)OCO3 [Example 97, (2E)-N-[(1R, 2S)-2-hydroxy-2,3-dihydro-1H-inden-1-yl]-3-(1-methyl-2-phenyl-5,6-methylenedioxy-1H-indol-3-yl)acrylamide]	37%	69%	–
COc1cc2c(cc1OC)CN(C(=O)/C=C/c1c(-c3ccccc3)n(C)c3cccnc13)CC2 [Example 136, 2-[(2E)-3-(1-methyl-2-phenyl-1H-pyrrolo[3,2-b]pyridin-3-yl)prop-2-enoyl]-6,7-dimethoxy-1,2,3,4-tetrahydroisoquinoline hydrochloride]	66%	111%	–
Cc1cnc2c(c1)c(C(=O)N1CCN(c3cnc(C(=O)NCCc4scnc4C)cn3)CC1)c(-c1ccccc1)n2C [Example 148, 5-{4-[(1,5-dimethyl-2-phenyl-1H-pyrrolo[2,3-b]pyridin-3-yl)carbonyl]piperazin-1-yl}-N-[2-(4-methyl-1,3-thiazol-5-yl)ethyl]pyrazine-2-carboxamide trihydrochloride]	29%	53%	–
CCOC(=O)C1CCCC1NC(=O)c1cnc(N2CCN(C(=O)c3c(-c4ccccc4)n(C)c4ccc(C)cc34)CC2)cn1 (stereo not drawn) [Example 129, Ethyl 2-{N-[(5-{4-[(1,5-dimethyl-2-phenyl-1H-indol-3-yl)carbonyl]piperazin-1-yl}pyrazin-2-yl)carbonyl]amino}-1-cyclopentanecarboxylate]	75%	73%	–
COc1cc2c(cc1OC)C(CC(=O)O)N(C(=O)/C=C/c1c(-c3ccccc3)n(C)c3ncccc13)CC2 (stereo not drawn) [Example 124, {6,7-dimethoxy-2-[(2E)-3-(1-methyl-2-phenyl-1H-pyrrolo[2,3-b]pyridin-3-yl)prop-2-enoyl]-1,2,3,4-tetrahydroisoquinolin-1-yl}acetic acid]	–	108%	Inhibitory effect on collagen production induced by TGF-β (% inhibition) (1 μM): 21%
COc1cc2c(cc1OC)CN(C(=O)/C=C/c1c(-c3ccccc3)n(C)c3nccnc13)CC2 [Example 128, 2-[(2E)-3-(5-methyl-6-phenyl-5H-pyrrolo[2,3-b]pyrazin-7-yl)prop-2-enoyl]-6,7-dimethoxy-1,2,3,4-tetrahydroisoquinoline hydrochloride]	61%	76%	–
CCOC(=O)C1CCCC1NC(=O)/C=C/c1c(-c2ccccc2)n(C)c2ncccc12 (stereo not drawn) [Example 126, Ethyl 2-{N-[(2E)-3-(1-methyl-2-phenyl-1H-pyrrolo[2,3-b]pyridin-3-yl)prop-2-enoyl]amino}-1-cyclopentanecarboxylate]	29%	86%	–
COc1cc2c(cc1OC)CN(C(=O)/C=C/c1c(-c3ccccc3)[nH]c3ncccc13)CC2 [Example 138, 6,7-dimethoxy-2-[(2E)-3-(2-phenyl-1H-pyrrolo[2,3-b]pyridin-3-yl)prop-2-enoyl]-1,2,3,4-tetrahydroisoquinoline dihydrochloride]	65%	53%	–
COc1cccc2c(/C=C/C(=O)N(C)CCC(O)c3ccccc3)c(-c3ccccc3)n(C)c12 (stereo not drawn) [Example 111, (2E)-N-methyl-N-(3-hydroxy-3-phenylpropyl)-3-(1-methyl-2-phenyl-7-methoxy-1H-indol-3-yl)acrylamide]	–	82%	inhibition at 10 µM (10 μM): 168%
COc1ccc(-c2c(/C=C/C(=O)N3CCc4cc(OC)c(OC)cc4C3)c3cccnc3n2C)cc1OC [Example 131, 2-{(2E)-3-[1-methyl-2-(3,4-dimethoxyphenyl)-1H-pyrrolo[2,3-b]pyridin-3-yl]prop-2-enoyl}-6,7-dimethoxy-1,2,3,4-tetrahydroisoquinoline hydrochloride]	96%	141%	–
COC(=O)c1ccc(-c2c(/C=C/C(=O)N(C)C3CCN(C)CC3)c3cc(C)ccc3n2C)cc1 [Example 143, (2E)-N-methyl-N-(1-methylpiperidin-4-yl)-3-[1,5-dimethyl-2-(4-carbomethoxyphenyl)-1H-indol-3-yl]acrylamide]	42%	104%	–
COc1cc2c(cc1OC)CN(C(=O)/C=C/c1c(-c3ccccc3)n(C)c3ncccc13)CC2 [Example 109, 2-[(2E)-3-(1-methyl-2-phenyl-1H-pyrrolo[2,3-b]pyridin-3-yl)prop-2-enoyl]-6,7-dimethoxy-1,2,3,4-tetrahydroisoquinoline hydrochloride]	50%	76%	inhibition at 10 µM (10 μM): 135%
COc1ccc(CCN(C)C(=O)/C=C/c2c(-c3ccc4c(c3)OCO4)n(C)c3ccccc23)cc1OC [Example 115, (2E)-N-methyl-N-[2-(3,4-dimethoxyphenyl)ethyl]-3-[1-methyl-2-(3,4-methylenedioxyphenyl)-1H-indol-3-yl]acrylamide]	–	84%	inhibition at 10 µM (10 μM): 155%
COC(=O)c1ccc(-c2c(/C=C/C(=O)N3CCC(C(C)=O)(c4ccccc4)CC3)c3cc(C)ccc3n2C)cc1 [Example 141, 4-acetyl-1-{(2E)-3-[1,5-dimethyl-2-(4-carbomethoxyphenyl)-1H-indol-3-yl]prop-2-enoyl}-4-phenylpiperidine]	111%	114%	–
CC1c2cc(O)c(O)cc2CCN1C(=O)/C=C/c1c(-c2ccccc2)n(C)c2cc3c(cc12)OCO3 (stereo not drawn) [Example 117, 2-{(2E)-3-[1-methyl-2-phenyl-(5,6-methylenedioxy)-1H-indol-3-yl]prop-2-enoyl}-1-methyl-6,7-dihydroxy-1,2,3,4-tetrahydroisoquinoline]	–	–	Inhibitory effect on collagen production induced by TGF-β (% inhibition) (3 μM): 82%; Inhibitory effect on collagen production induced by TGF-β (% inhibition) (10 μM): 140%
COc1ccc(N2CCN(C(=O)/C=C/c3c(-c4ccccc4)n(C)c4ncccc34)CC2)cc1 [Example 98, 1-[(2E)-3-(1-methyl-2-phenyl-1H-pyrrolo[2,3-b]pyridin-3-yl)prop-2-enoyl]-4-(4-methoxyphenyl)piperazine]	47%	92%	–
COc1cc2c(cc1OC)C(CC(=O)O)N(C(=O)/C=C/c1c(-c3ccccc3)n(C)c3ncccc13)CC2.Cl (stereo not drawn) [Example 134, {6,7-dimethoxy-2-[(2E)-3-(1-methyl-2-phenyl-1H-pyrrolo[2,3-b]pyridin-3-yl)prop-2-enoyl]-1,2,3,4-tetrahydroisoquinolin-1-yl}acetic acid hydrochloride]	–	–	Inhibitory effect on collagen production induced by TGF-β (% inhibition) (1 μM): 90%; Inhibitory effect on collagen production induced by TGF-β (% inhibition) (3 μM): 111%
CN(CCC(O)c1ccccc1)C(=O)/C=C/c1c(-c2ccc(F)cc2)n(C)c2ccccc12 (stereo not drawn) [Example 110, (2E)-N-methyl-N-(3-hydroxy-3-phenylpropyl)-3-[1-methyl-2-(4-fluorophenyl)-1H-indol-3-yl]acrylamide]	–	66%	inhibition at 10 µM (10 μM): 143%
CN(CCC(O)c1ccccc1)C(=O)/C=C/c1c(-c2ccc3c(c2)OCO3)n(C)c2ccccc12 (stereo not drawn) [Example 112, (2E)-N-methyl-N-(3-hydroxy-3-phenylpropyl)-3-[1-methyl-2-(3,4-methylenedioxyphenyl)-1H-indol-3-yl]acrylamide]	–	73%	inhibition at 10 µM (10 μM): 143%
